As usually defined, the IC50 is the concentration that gives 50% inhibition. A lower IC50 goes with greater potency.

Among the data in patent US11827645B2, “Spiro-γ-Lactams, and preparation method and use thereof” (Chongqing University of Arts and Sciences, priority 2020, dated 2023) are anticancer activities and IC50 values, retold here.

This experiment deals with human pancreatic cell lines PANC. The experiment can be described thus: MTT assay of cancer cell viability, PANC cells. It is filed as cell-based. The source says:
To evaluate potentials for developing a drug leading from the synthesized compounds, the MTT assay was used to measure cancer cell viability upon the drug treatment. Two cancer cell lines (PANC and U87) were selected, which are some of the representing solid tumor cell lines in the National Cancer Institute's 60 human tumor cell lines panel (see FIG. 1A).

Take `Cc1cccc(C)c1N1C(=O)C2(C=CC(=O)N2c2ccc(CNC(=O)OC(C)(C)C)cc2)C2C(=O)c3ccccc3OC21` (centres unmarked) [Compound 6j, Tert-butyl (4-(1-(2,6-dimethylphenyl)-2,4,5′-trioxo-1,3a,4,9a-tetrahydro-2H-spiro[chromeno[2,3-b]pyrrole-3,2′-pyrrol]-1′(5′H)-yl)benzyl)carbamate]: the anticancer activities result (cancer cell viability, PANC) is “excellent anticancer activities”. Also, the midpoint of inhibition (human pancreatic cell lines PANC), the IC50, lay at 92 nM.
